# Laboratory results from patent US20150183834A1 (priority 2005, published 2015).
# Legend:
# [1] = system: Rhesus macaque PBMC; type: cell-based, Rhesus (Macaca mulatta)
# [2] = system: human PBMC; type: cell-based
# [3] = system: Rhesus macaque PBMC; type: cell-based, Rhesus (Macaca mulatta); remark: listed apart in the source
# [4] = system: human PBMC; type: cell-based; remark: listed apart in the source
# [5] = system: Rhesus macaque PBMC; type: cell-based, Rhesus (Macaca mulatta); remark: listed apart in the source
# [6] = system: purified human CD4+ and CD8+ T cells; type: cell-based
# [7] = system: human peripheral blood mononuclear cells (PBMCs); type: cell-based
# [8] = system: human PBMC; type: cell-based; remark: listed apart in the source
# [9] = system: human PBMC; type: cell-based; remark: listed apart in the source
# [10] = system: human PBMC; type: cell-based; remark: listed apart in the source
# [11] = system: protein kinase C; conditions: cited from earlier work
sequence,measurement,setting,value
ILNRKAIDFLLQRWGGT [ZEBOV peptide],apoptosis (in words),[1],increased
same,IL-1β,[2],dose-dependent reduction
same,IL-4,[2],trend toward decrease
same,IL-6,[2],no pattern
same,IL-10,[2],increase
same,MCP-1,[2],dose-dependent reduction
same,MIP1-α,[2],no effect
same,TNF-α,[2],dose-dependent reduction
same,anti-CD3/CD28-induced production of IFN-γ,[2],suppressed
same,anti-CD3/CD28-induced production of IL-12p40,[2],suppressed
same,production of IL-2,[2],suppressed
same,T cell activation (in words),[3],Decreased
same,depletion of CD4+ T cells and CD8+ T cells (in words),[3],Significant depletion
same,mean fluorescent intensity of CD25 expression on CD4+ and CD8+ T cells,[4],decreased
same,mean fluorescent intensity of CD69 expression on CD4+ and CD8+ T cells,[4],decreased
same,percentage of CD4+ T cells that are CD25+,[4],65.9±11.8%
same,percentage of CD4+ T cells that are CD69+,[4],69.4±3.4%
same,percentage of CD8+ T cells that are CD25+,[4],43.9+9.0%
same,percentage of CD8+ T cells that are CD69+,[4],67.9±9.6%
same,percentages of both CD69+CD4+ T cells and CD69+CD8+ T cells (in words),[4],significant reduction
same,IFN-γ,[5],significant decrease
same,IL1-β,[5],significant decrease
same,IL-12p40,[5],significant decrease
same,Levels of IL-8,[5],did not alter
same,Levels of MIP1-α,[5],did not alter
same,TNF-α,[5],significant decrease
same,activation and cell death in purified CD4+ or CD8+ T cell population,[6],sufficient to induce activation and cell death
same,levels of IL-2,[7],decreased levels
same,levels of IL-10,[7],increased levels
same,levels of IL-12,[7],decreased levels
same,fold increase in apoptotic CD4+ cells,[8],3.6 fold
same,fold increase in apoptotic CD8+ cells,[8],2.0 fold
same,percentage of Annexin V+ PI- CD4+,[8],43.6±5.8%
same,percentage of Annexin V+ PI− CD8+,[8],29.7±3.7%
same,fold decrease in the number of CD4+ T cells,[9],7.4 fold
same,fold decrease in the number of CD8+ T cells,[9],4.4 fold
same,fold reduction in the cell surface expression of CD4,[9],3.5 fold
same,fold reduction in the cell surface expression of CD8,[9],4.2 fold
same,mean fluorescence intensity value for CD4 expression ± SD,[9],961±40
same,mean fluorescence intensity value for CD8 expression ± SD,[9],"4,025±75"
same,number of CD4+ T cells,[9],5.5±1.8 ×10^4
same,number of CD8+ T cells,[9],5.8±1.6 ×10^4
same,percentage of cells positive for CD4 and CD8,[9],significant decrease
same,fold decrease in the percentage of cells in the S phase,[10],3.5 fold
same,fold increase in the number of cells with hypodiploid DNA content,[10],8.8 fold
same,percentage of BrdU labeled CD4+ cells,[10],3.9±0.6%
same,percentage of BrdU labeled CD8+ cells,[10],4.8±1.8%
same,percentage of cells in S phase,[10],8.0±0.5%
same,percentage of cells with hypodiploid DNA,[10],22.0±2.2%
LINRHAIDFLLTRWGGT [MARV peptide],CD69+CD4+ T cells (in words),[4],trend toward reduction
same,percentage of CD69+ CD8+ T cells (in words),[4],significant reduction
same,percentages of both CD69+CD4+ T cells and CD69+CD8+ T cells (in words),[4],significant reduction
same,induction of apoptosis in CD4+ and CD8+ T cells (in words),[8],Effects were similar
same,percentage of cells positive for CD4 and CD8,[9],significant decrease
LLNRKAIDFLLQRWGGT [REBOV peptide],fold increase in apoptotic CD4+ cells,[1],3.1 fold
same,fold increase in apoptotic CD8+ cells,[1],2.6 fold
same,percentage of Annexin V+ P1− CD8+,[1],31.8±3.3%
same,cytokine production overall (in words),[2],No effects
same,depletion of CD4+ T cells and CD8+ T cells (in words),[3],Significant depletion
same,fold decrease in the number of CD4+ T cells,[3],4.5 fold
same,fold decrease in the number of CD8+ T cells,[3],4.6 fold
same,mean fluorescent intensity of CD69 expression on CD4+ and CD8+ T cells,[3],decreased
same,number of CD4+ T cells,[3],4.8±0.7 ×10^4
same,number of CD8+ T cells,[3],2.3±0.4 ×10^4
same,percentage of CD4+ rhesus T cells that are CD69+,[3],63.6±1.9%
same,percentage of CD8+ rhesus T cells that are CD69+,[3],60.7±3.1%
same,CD69+CD4+ T cells (in words),[4],No effect
same,IL-2R (CD25) expression in CD4+ and CD8+ T cells (in words),[4],No effect
same,percentage of CD69+ CD8+ T cells (in words),[4],No effect
same,percentages of both CD69+CD4+ T cells and CD69+CD8+ T cells (in words),[4],No effect
same,IFN-γ,[5],significant decrease
same,IL1-β,[5],significant decrease
same,IL-12p40,[5],significant decrease
same,Levels of IL-8,[5],did not alter
same,Levels of MIP1-α,[5],did not alter
same,TNF-α,[5],significant decrease
same,release of IL-2,[5],decreased release
same,induction of apoptosis in CD4+ and CD8+ T cells (in words),[8],No significant induction
same,absolute T cell numbers (in words),[9],no significant depletion
same,expression levels of CD4 and CD8 on PBMC (in words),[9],No decrease
same,percentage of cells positive for CD4 and CD8,[9],not
same,BrdU labeling (in words),[10],No significant change
same,cycling pattern (in words),[10],No change
ILNRKAIDFLLQRWGGT [SEBOV peptide],CD69+CD4+ T cells (in words),[4],trend toward reduction
same,percentage of CD69+ CD8+ T cells (in words),[4],significant reduction
same,induction of apoptosis in CD4+ and CD8+ T cells (in words),[8],Effects were similar
"LQNRRGLDLLFLKEGGL [CKS-17, reference compound]",activity of protein kinase C,[11],blocks the activity
same,levels of IL-2,[7],decreased levels
same,levels of IL-10,[7],increased levels
same,levels of IL-12,[7],decreased levels
